The data set in a line: Solubility in water of riboflavin types. In kind it is physicochemical. Particulars: compared with other types of riboflavin.

For `Cc1cc2nc3c(=O)[nH]c(=O)nc-3n(C[C@H](O)[C@H](O)[C@H](O)COP(=O)(O)O)c2cc1C` [riboflavin 5′ phosphate], the solubility in water result was “most soluble in water”.

Values taken from patent US20210371782A1, “METHODS FOR OPTICAL MICROPATTERNING OF HYDROGELS AND USES THEREOF” (President and Fellows of Harvard College, priority 2016, published 2021).
